Measurements taken from ChEMBL document CHEMBL1141080, “Discovery of potent orally active thrombin receptor (protease activated receptor 1) antagonists as novel antithrombotic agents” (J Med Chem, 2005).
pIC50: −log10 of the molar value.

How the values were obtained:
[1] = target: T1, Proteinase-activated receptor 1 (Homo sapiens, UniProt P25116)
T1 sequence (P25116 whole entry): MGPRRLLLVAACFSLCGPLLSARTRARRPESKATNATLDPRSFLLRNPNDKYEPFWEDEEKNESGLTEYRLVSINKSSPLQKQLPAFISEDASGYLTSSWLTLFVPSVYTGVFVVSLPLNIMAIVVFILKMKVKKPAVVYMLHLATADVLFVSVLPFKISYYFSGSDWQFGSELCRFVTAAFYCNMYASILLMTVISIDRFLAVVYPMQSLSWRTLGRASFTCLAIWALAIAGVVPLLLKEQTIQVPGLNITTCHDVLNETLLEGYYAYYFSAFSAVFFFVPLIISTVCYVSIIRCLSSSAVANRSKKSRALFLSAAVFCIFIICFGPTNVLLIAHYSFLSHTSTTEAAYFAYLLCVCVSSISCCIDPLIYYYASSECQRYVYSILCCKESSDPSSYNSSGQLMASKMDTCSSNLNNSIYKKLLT
Description: (§1) In vitro inhibitory concentration against human protease activated receptor 1 using [3H]-haTRAP as radioligand

[2] = Area under curve after oral administration to rats in 20% hydroxypropyl-beta-cyclodextrin after 4 hours; details: rat, in vivo
[3] = Maximum plasma concentration after oral administration to rats in 20% hydroxypropyl-beta-cyclodextrin after 4 hours; details: rat
[4] = target: T1, Proteinase-activated receptor 1; remark: listed apart in the source
Description: as §1

[5] = Bioavailability of compound upon oral administration in rat; assay type: ADME, organism-based; details: in vivo
[6] = Half life of compound upon iv administration in rat; assay type: ADME, organism-based; details: in vivo
[7] = Bioavailability of compound after oral administration in rat at a dose of 10 mg/kg; assay type: ADME, organism-based; details: in vivo
[8] = Half life upon intravenous administration in rat; assay type: ADME, organism-based; details: in vivo
[9] = Half life after intravenous administration in monkey; assay type: ADME, organism-based; details: cercopithecidae, in vivo
[10] = Maximum plasma concentration upon oral administration in rat
[11] = Bioavailability of compound after oral administration in monkey; details: cercopithecidae, in vivo

pIC50 [1]	SMILES	further results
7.89	Cc1cccc(-c2ccc(/C=C/[C@H]3[C@@H]4CCCC[C@H]4C[C@H]4C(=O)O[C@H](C)[C@@H]34)nc2)c1	AUC at 4 h [2]: 0.331 µM·h; Cmax [3]: 380 nM
7.60	C[C@H]1OC(=O)[C@@H]2C[C@@H]3CCCC[C@H]3[C@H](/C=C/c3ccc(-c4cccc(Br)c4)cn3)[C@H]12	
7.59	C[C@H]1OC(=O)[C@@H]2C[C@@H]3CCCC[C@H]3[C@H](/C=C/c3ccc(-c4ccccc4Cl)cn3)[C@H]12	AUC at 4 h [2]: 4.29 µM·h; Cmax [3]: 1780 nM
6.33	C[C@H]1OC(=O)[C@@H]2C[C@@H]3CCCC[C@H]3[C@H](/C=C/c3ccc(-c4ccc(F)cc4)cn3)[C@H]12 (racemic)	
7.66	C[C@H]1OC(=O)[C@@H]2C[C@@H]3CCCC[C@H]3[C@H](/C=C/c3ccc(-c4ccccc4F)cn3)[C@H]12	AUC at 4 h [2]: 2.47 µM·h; Cmax [3]: 1080 nM
7.00	C[C@H]1OC(=O)[C@@H]2C[C@@H]3CCCC[C@H]3[C@H](/C=C/c3ccc(-c4cccc(S(N)(=O)=O)c4)cn3)[C@H]12	
6.00	C[C@H]1OC(=O)[C@@H]2C[C@@H]3CCCC[C@H]3[C@H](/C=C/c3ccc(-c4ccc(Cl)cc4)cn3)[C@H]12 (racemic)	
7.46	C[C@H]1OC(=O)[C@@H]2C[C@@H]3CCCC[C@H]3[C@H](/C=C/c3ccc(-c4cccc(F)c4)cn3)[C@H]12	AUC at 4 h [2]: 3.55 µM·h; Cmax [3]: 1520 nM
7.55	COc1cccc(-c2ccc(/C=C/[C@H]3[C@@H]4CCCC[C@H]4C[C@H]4C(=O)O[C@H](C)[C@@H]34)nc2)c1	AUC at 4 h [2]: 0.012 µM·h; Cmax [3]: 20 nM
7.57	C[C@H]1OC(=O)[C@@H]2C[C@@H]3CCCC[C@H]3[C@H](/C=C/c3ccc(-c4ccccc4)cn3)[C@H]12	AUC at 4 h [2]: 0.917 µM·h; Cmax [3]: 453 nM
7.72	CC(C)c1cccc(-c2ccc(/C=C/[C@H]3[C@@H]4CCCC[C@H]4C[C@H]4C(=O)O[C@H](C)[C@@H]34)nc2)c1	AUC at 4 h [2]: 0.258 µM·h; Cmax [3]: 289 nM
6.49	Cc1ccc(-c2ccc(/C=C/[C@H]3[C@@H]4CCCC[C@H]4C[C@H]4C(=O)O[C@H](C)[C@@H]34)nc2)cc1 (racemic)	
7.60	C[C@H]1OC(=O)[C@@H]2C[C@@H]3CCCC[C@H]3[C@H](/C=C/c3ccc(-c4cccc(C#N)c4)cn3)[C@H]12	
8.00	C[C@H]1OC(=O)[C@@H]2C[C@@H]3CCCC[C@H]3[C@H](/C=C/c3ccc(-c4cccc(Cl)c4)cn3)[C@H]12	AUC at 4 h [2]: 4.11 µM·h; Cmax [3]: 1460 nM

More lines, now with the values behind:

SMILES	pIC50 [1]	further results
CC(C)Cc1cccc(/C=C/[C@H]2[C@@H]3CCCC[C@H]3C[C@H]3C(=O)O[C@H](C)[C@@H]23)n1 (racemic)	6.26	
C[C@H]1OC(=O)[C@@H]2C[C@@H]3CCCC[C@H]3[C@H](/C=C/c3cccc(-c4ccccc4)n3)[C@H]12 (racemic)		IC50 [4]: Not Active
Cc1ccc(/C=C/[C@H]2[C@@H]3CCCC[C@H]3C[C@H]3C(=O)O[C@H](C)[C@@H]23)nc1 (racemic)	5.96	
CC(C)c1cccc(/C=C/[C@H]2[C@@H]3CCCC[C@H]3C[C@H]3C(=O)O[C@H](C)[C@@H]23)n1 (racemic)	6.14	
C[C@H]1OC(=O)[C@@H]2C[C@@H]3CCCC[C@H]3[C@H](/C=C/c3ccccn3)[C@H]12 (racemic)	5.40	
C[C@H]1OC(=O)[C@@H]2C[C@@H]3CCCC[C@H]3[C@H](/C=C/c3cccc(Cc4ccccc4)n3)[C@H]12 (racemic)	6.05	
CCCCc1cccc(/C=C/[C@H]2[C@@H]3CCCC[C@H]3C[C@H]3C(=O)O[C@H](C)[C@@H]23)n1 (racemic)	6.84	
Cc1cccnc1/C=C/[C@H]1[C@@H]2CCCC[C@H]2C[C@H]2C(=O)O[C@H](C)[C@@H]12 (racemic)	< 5.30	
CNc1cccc(/C=C/[C@H]2[C@@H]3CCCC[C@H]3C[C@H]3C(=O)O[C@H](C)[C@@H]23)n1 (racemic)	5.90	
C[C@H]1OC(=O)[C@@H]2C[C@@H]3CCCC[C@H]3[C@H](/C=C/c3ccc(-c4ccc(C(F)(F)F)cc4)cn3)[C@H]12 (racemic)	< 6.52	
COc1ccccc1-c1ccc(/C=C/[C@H]2[C@@H]3CCCC[C@H]3C[C@H]3C(=O)O[C@H](C)[C@@H]23)nc1	7.96	AUC at 4 h [2]: 0.413 µM·h; Cmax [3]: 419 nM
COc1ccc(-c2ccc(/C=C/[C@H]3[C@@H]4CCCC[C@H]4C[C@H]4C(=O)O[C@H](C)[C@@H]34)nc2)cc1 (racemic)	6.69	
CCc1cccc(/C=C/[C@H]2[C@@H]3CCCC[C@H]3C[C@H]3C(=O)O[C@H](C)[C@@H]23)n1		bioavailability [5]: < 3%; half-life [6]: < 1 h
C[C@H]1OC(=O)[C@@H]2C[C@@H]3CCCC[C@H]3[C@H](/C=C/c3ccc(OCc4ccccc4)cn3)[C@H]12 (racemic)	7.72	
C[C@H]1OC(=O)[C@@H]2C[C@@H]3CCCC[C@H]3[C@H](/C=C/c3ccc(-c4cccc(C(F)(F)F)c4)cn3)[C@H]12		bioavailability [7]: 30%; half-life [8]: 3.2 h; half-life [9]: 12.4 h; Cmax [10]: 1160 nM; bioavailability [11]: 50%; AUC at 4 h [2]: 6.12 µM·h; Cmax [3]: 2300 nM
CCOC(=O)c1ccccc1-c1ccc(/C=C/[C@H]2[C@@H]3CCCC[C@H]3C[C@H]3C(=O)O[C@H](C)[C@@H]23)nc1	7.36	
C[C@H]1OC(=O)[C@@H]2C[C@@H]3CCCC[C@H]3[C@H](/C=C/c3cccc(CO)n3)[C@H]12 (racemic)	5.82	
COc1cccc(/C=C/[C@H]2[C@@H]3CCCC[C@H]3C[C@H]3C(=O)O[C@H](C)[C@@H]23)n1 (racemic)		IC50 [4]: Not Active
CCCc1cccc(/C=C/[C@H]2[C@@H]3CCCC[C@H]3C[C@H]3C(=O)O[C@H](C)[C@@H]23)n1 (racemic)	6.60	
CCCCCCc1cccc(/C=C/[C@H]2[C@@H]3CCCC[C@H]3C[C@H]3C(=O)O[C@H](C)[C@@H]23)n1 (racemic)	5.46	
COCc1cccc(/C=C/[C@H]2[C@@H]3CCCC[C@H]3C[C@H]3C(=O)O[C@H](C)[C@@H]23)n1 (racemic)	6.07	
C[C@H]1OC(=O)[C@@H]2C[C@@H]3CCCC[C@H]3[C@H](/C=C/c3ccc(Cc4ccccc4)cn3)[C@H]12 (racemic)	5.43	
COc1ccc(/C=C/[C@H]2[C@@H]3CCCC[C@H]3C[C@H]3C(=O)O[C@H](C)[C@@H]23)nc1 (racemic)	6.49	
Cc1ccnc(/C=C/[C@H]2[C@@H]3CCCC[C@H]3C[C@H]3C(=O)O[C@H](C)[C@@H]23)c1 (racemic)	5.68	
C[C@H]1OC(=O)[C@@H]2C[C@@H]3CCCC[C@H]3[C@H](/C=C/c3cccc(C4CC4)n3)[C@H]12 (racemic)	6.68	
C=Cc1cccc(/C=C/[C@H]2[C@@H]3CCCC[C@H]3C[C@H]3C(=O)O[C@H](C)[C@@H]23)n1 (racemic)	6.82	
C[C@H]1OC(=O)[C@@H]2C[C@@H]3CCCC[C@H]3[C@H](/C=C/c3ccc(-c4ccccc4C(F)(F)F)cn3)[C@H]12	7.34	AUC at 4 h [2]: 2.35 µM·h; Cmax [3]: 1000 nM
Cc1ccccc1-c1ccc(/C=C/[C@H]2[C@@H]3CCCC[C@H]3C[C@H]3C(=O)O[C@H](C)[C@@H]23)nc1		AUC at 4 h [2]: 2.81 µM·h; Cmax [3]: 1220 nM
